Assay results: ChEMBL document CHEMBL1142500, “'Reverse' alpha-ketoamide-based p38 MAP kinase inhibitors” (Bioorg Med Chem Lett, 2008)

Experiments:
THP-1 = assay: Inhibition of LPS-induced TNFalpha production in human THP1 cells; format: functional, cell-based
[1] = AUC in rat at 30 mg/kg, po; format: ADME, organism-based; parameters: dose 30 mg/kg, route oral; settings: plasma
[2] = molecular target: T1, Mitogen-activated protein kinase 14 (Homo sapiens, UniProt Q16539); assay: Inhibition of human p38alpha phosphorylation
[3] = Volume of distribution at steady state in rat at 10 mg/kg, iv; format: ADME, organism-based; parameters: dose 10 mg/kg, route intravenous; settings: in vivo, read-out: Vdss
[4] = Clearance in rat at 10 mg/kg, iv; format: ADME, organism-based; parameters: dose 10 mg/kg, route intravenous; settings: in vivo
[5] = molecular target: T1, Mitogen-activated protein kinase 14; assay: Inhibition of human p38alpha
[6] = Oral bioavailability in rat at 30 mg/kg; format: ADME, organism-based; settings: in vivo
[7] = Half life in rat at 30 mg/kg, po; format: ADME, organism-based; parameters: dose 30 mg/kg, route oral; settings: in vivo
[8] = Tmax in rat at 30 mg/kg, po; format: ADME, organism-based; parameters: dose 30 mg/kg, route oral; settings: in vivo
[9] = Cmax in rat at 30 mg/kg, po; format: ADME, organism-based; parameters: dose 30 mg/kg, route oral; settings: in vivo

T1 sequence (Q16539 whole entry): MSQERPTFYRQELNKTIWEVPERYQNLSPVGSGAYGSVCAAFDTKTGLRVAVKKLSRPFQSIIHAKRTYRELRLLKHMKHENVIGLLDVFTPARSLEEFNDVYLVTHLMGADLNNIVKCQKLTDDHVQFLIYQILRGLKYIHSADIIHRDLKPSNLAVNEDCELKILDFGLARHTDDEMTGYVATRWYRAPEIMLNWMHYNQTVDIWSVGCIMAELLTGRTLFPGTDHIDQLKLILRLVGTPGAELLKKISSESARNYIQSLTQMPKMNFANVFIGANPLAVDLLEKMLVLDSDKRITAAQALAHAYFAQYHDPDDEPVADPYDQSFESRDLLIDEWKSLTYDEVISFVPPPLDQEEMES

Structure (SMILES)	IC50 (THP-1) [nM]	IC50 [2] [nM]	IC50 [5] [nM]	further results
Cn1nc(C(C)(C)C)cc1NC(=O)C(=O)c1ccc(OCCN2CCOCC2)c2ccccc12	440			
Cc1cccc(-n2nc(C(C)(C)C)cc2C(=O)C(=O)Nc2ccc(OCCN3CCOCC3)c3ccccc23)c1	280			
Cc1ccc(-n2nc(C(C)(C)C)cc2C(=O)C(=O)Nc2ccc(OCCN3CCOCC3)c3ccccc23)cc1	330			
Cc1ccc(-n2nc(C(C)(C)C)cc2/C(=C/O)C(=O)Nc2ccc(OCCN3CCOCC3)c3ccccc23)cc1	3300			
Cc1oc(C(C)(C)C)cc1C(=O)C(=O)Nc1ccc(Nc2ncccn2)c2ccccc12	460			
Cn1nc(C(C)(C)C)cc1NC(=O)C(=O)c1ccc(-c2ccc(CN3CCOCC3)nc2)c2ccccc12	850			

Stronger by IC50 (THP-1), values ahead:

IC50 (THP-1) [nM]	IC50 [2] [nM]	IC50 [5] [nM]	Structure (SMILES)	further results
180			CC(C)(C)c1cc(C(=O)C(=O)Nc2ccc(OCCN3CCOCC3)c3ccccc23)n(-c2ccc(F)c(F)c2)n1	
70	70	14	Cn1nc(C(C)(C)C)cc1C(=O)C(=O)Nc1ccc(OCCN2CCOCC2)c2ccccc12	
61	270	22	Cc1oc(C(C)(C)C)cc1C(=O)C(=O)Nc1ccc(OCCN2CCOCC2)c2ccccc12	
59			Cc1oc(C(C)(C)C)cc1C(=O)C(=O)Nc1ccc(Nc2ccncn2)c2ccccc12	
49	100	59	Cc1cccc(-n2nc(C(C)(C)C)cc2/C(=N/O)C(=O)Nc2ccc(OCCN3CCOCC3)c3ccccc23)c1	AUC [1]: 26000 ng·h/mL; Vd [3]: 1.5 L/kg; clearance [4]: 10.2 mL/min/kg; bioavailability [6]: 54%; half-life [7]: 2.9 h; Tmax [8]: 1.5 h; Cmax [9]: 4000 ng/mL
9	20	59	Cc1oc(C(C)(C)C)cc1C(=O)C(=O)Nc1ccc(-c2ccc(CN3CCOCC3)nc2)c2ccccc12	
